Measurements published in PMC3445454, “Broad and Cross-Clade CD4^+ T-Cell Responses Elicited by a DNA Vaccine Encoding Highly Conserved and Promiscuous HIV-1 M-Group Consensus Peptides” (PLoS ONE, 2012).
Read-outs that look alike come from different tables or passages of the source.

Tests used:
Test in all cases: biochemical
Type in all cases: binding
HLA-DR DRB1*10:01 = HLA-DR DRB1*10:01 (Homo sapiens, UniProt P01903+P01911, A100R/A169T/D57E/F55L/F60V/F69Y/F76Y/I96L/L162R/M171V/P40V/Q260P/Q39E/Q99R/R195Q/R42F/S149N/S66Y/T210M/V115G/V67A/W38E/Y59R/Y61H)
HLA-DR DRB1*04:05 = HLA-DR DRB1*04:05 (Homo sapiens, UniProt P01903+P01911, A100R/A169T/D86S/F76Y/I96L/K127E/L162R/M171V/N62H/P40V/Q125Y/R42H/S133A/S149N/S66Y/V115G/V209L/W38E)
[1] = target: T1, HLA-DP DPA1*01:03/DPB1*02:01 (Homo sapiens, UniProt P04440+P20036, A65V/A84D/A85E/K98E)
T1 sequence (P20036 29-260): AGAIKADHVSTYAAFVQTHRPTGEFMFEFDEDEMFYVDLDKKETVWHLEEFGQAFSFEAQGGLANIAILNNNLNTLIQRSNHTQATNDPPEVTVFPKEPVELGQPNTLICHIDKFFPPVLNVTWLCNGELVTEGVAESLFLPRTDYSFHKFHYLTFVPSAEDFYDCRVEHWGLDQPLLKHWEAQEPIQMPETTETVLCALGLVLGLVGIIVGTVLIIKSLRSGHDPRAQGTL
T1 sequence (P04440 30-258 A65V/A84D/A85E/K98E): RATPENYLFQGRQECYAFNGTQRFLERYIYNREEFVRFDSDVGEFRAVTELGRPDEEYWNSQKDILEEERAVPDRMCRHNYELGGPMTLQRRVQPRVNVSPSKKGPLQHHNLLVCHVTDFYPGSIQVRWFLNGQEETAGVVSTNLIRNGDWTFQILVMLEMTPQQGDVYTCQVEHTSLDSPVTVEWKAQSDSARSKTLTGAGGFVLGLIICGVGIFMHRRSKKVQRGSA

HLA-DR DRB1*08:02 = HLA-DR DRB1*08:02 (Homo sapiens, UniProt P01903+P01911, A100R/A103L/A169T/F76Y/H45Y/I96F/K41T/L162R/M171V/P40S/Q125H/Q178H/Q39Y/Q99D/R218S/R42G/S66Y/V115G/W38E)
HLA-DR DRB1*04:01 = HLA-DR DRB1*04:01 (Homo sapiens, UniProt P01903+P01911, A100K/A169T/F76Y/I96L/K127E/L162R/M171V/N62H/P40V/Q125Y/R42H/S133A/S149N/S66Y/V115G/V209L/W38E)
HLA-DR DRB1*03:01 = HLA-DR DRB1*03:01 (Homo sapiens, UniProt P01903+P01911, A100K/A102G/A103R/A169T/F55Y/I96L/K41T/L162R/M171V/P40S/Q125H/Q178H/Q39Y/R42S/S66N/T106N/T262R/W38E/Y61H)
Chain of HLA-DR DRB1*03:01 (P01903 26-254 limits assumed, other chains not shown): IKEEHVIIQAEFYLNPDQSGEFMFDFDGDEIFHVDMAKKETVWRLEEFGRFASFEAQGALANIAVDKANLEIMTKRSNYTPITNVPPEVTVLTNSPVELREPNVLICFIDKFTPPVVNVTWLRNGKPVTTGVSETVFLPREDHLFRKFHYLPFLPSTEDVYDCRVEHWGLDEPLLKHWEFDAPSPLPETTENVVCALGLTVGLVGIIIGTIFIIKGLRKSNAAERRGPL

[2] = target: T2, HLA-DP DPA1*01:03/DPB1*20:01 (Homo sapiens, UniProt P04440+P20036, A65V/A84D/A85E/E86D/F38Y/G113D/G114E/G40L/I94L/L37V/M116V/P115A/R125K/T199I); settings: read-out: Binding capacity/IC50 (nM) DPA1*01:03 DPB1*20:01
T2 sequence (P20036 29-260): T1 sequence (P20036 29-260)
T2 sequence (P04440 30-258 L37V/F38Y/G40L/A65V/A84D/A85E/E86D/I94L/G113D/G114E/P115A/M116V/R125K/T199I/V234M): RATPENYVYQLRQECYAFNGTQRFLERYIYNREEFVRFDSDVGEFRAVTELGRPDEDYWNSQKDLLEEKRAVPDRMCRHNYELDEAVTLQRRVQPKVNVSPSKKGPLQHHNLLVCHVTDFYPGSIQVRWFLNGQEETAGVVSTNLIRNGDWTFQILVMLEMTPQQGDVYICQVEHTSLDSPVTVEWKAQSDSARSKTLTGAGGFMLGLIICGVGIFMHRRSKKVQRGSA

HLA-DR DRB1*01:01 = HLA-DR DRB1*01:01 (Homo sapiens, UniProt P01903+P01911, A100R/D57E/F55L/F60I/F76Y/I96L/L162R/M171V/P40L/Q125E/R42F/V115G/Y59C)
HLA-DR DRB1*11:01 = HLA-DR DRB1*11:01 (Homo sapiens, UniProt P01903+P01911, A100R/A169T/A87E/I96F/K41T/L162R/M171V/P40S/Q125H/Q178H/Q39Y/Q99D/R42S/S66Y/T262R/V115G/W38E)
Chain of HLA-DR DRB1*11:01 (P01903 26-254 limits assumed, other chains not shown): as the sequence (P01903 26-254 limits assumed, other chains not shown) above
HLA-DR DRB1*09:01 = HLA-DR DRB1*09:01 (Homo sapiens, UniProt P01903+P01911, A100R/A103E/D57H/D86V/F55Y/F60I/F76Y/I96F/K127E/L162R/M171V/P40D/Q125H/Q99R/R33Q/R42F/S133A/S66N/T210M/V115G/W38K/Y107V/Y59G/Y89S)
HLA-DR DRB1*07:01 = HLA-DR DRB1*07:01 (Homo sapiens, UniProt P01903+P01911, A100R/A102G/A103Q/D57E/D86V/E43K/F76Y/K127E/L162R/M171V/P40G/Q125H/Q99D/R33Q/R42Y/R54Q/S133A/S66F/T210M/V115G/Y107V/Y59L/Y89S)
HLA-DR DRB1*13:02 = HLA-DR DRB1*13:02 (Homo sapiens, UniProt P01903+P01911, A100E/A169T/K41T/L162R/M171V/P40S/Q125H/Q178H/Q39Y/Q99D/R42S/S66N/T262R/V115G/W38E/Y61H)
Chain of HLA-DR DRB1*13:02 (P01903 26-254 limits assumed, other chains not shown): as the sequence (P01903 26-254 limits assumed, other chains not shown) above
HLA-DR DRB1*12:01 = HLA-DR DRB1*12:01 (Homo sapiens, UniProt P01903+P01911, A100R/A169T/D57E/D86V/F55L/H45Y/K41T/L162R/M171V/P40S/Q125H/Q178H/Q39Y/Q99D/R42G/S66L/T262R/V114A/V67L/W38E/Y59H/Y61H/Y89S)
[3] = read-out: Binding capacity/IC50 (nM) DPA1*01:03 DPB1*02:01
[4] = read-out: Binding capacity/IC50 (nM) DRB1*10:01
[5] = read-out: Binding capacity/IC50 (nM) DRB1*04:05
[6] = read-out: Binding capacity/IC50 (nM) DRB1*08:02
[7] = read-out: Binding capacity/IC50 (nM) DRB1*04:01
[8] = read-out: Binding capacity/IC50 (nM) DRB1*03:01
[9] = read-out: Binding capacity/IC50 (nM) DRB1*01:01
[10] = read-out: Binding capacity/IC50 (nM) DRB1*11:01
[11] = read-out: Binding capacity/IC50 (nM) DRB1*09:01
[12] = read-out: Binding capacity/IC50 (nM) DRB1*07:01
[13] = read-out: Binding capacity/IC50 (nM) DRB1*13:02
[14] = read-out: Binding capacity/IC50 (nM) DRB1*12:01

SMILES	IC50 [1, 3] [nM]	IC50 [2] [nM]	IC50 (HLA-DR DRB1*10:01; [4]) [nM]	IC50 (HLA-DR DRB1*04:05; [5]) [nM]	IC50 (HLA-DR DRB1*08:02; [6]) [nM]	IC50 (HLA-DR DRB1*04:01; [7]) [nM]	IC50 (HLA-DR DRB1*03:01; [8]) [nM]	IC50 (HLA-DR DRB1*01:01; [9]) [nM]	IC50 (HLA-DR DRB1*11:01; [10]) [nM]	IC50 (HLA-DR DRB1*09:01; [11]) [nM]	IC50 (HLA-DR DRB1*07:01; [12]) [nM]	IC50 (HLA-DR DRB1*13:02; [13]) [nM]	IC50 (HLA-DR DRB1*12:01; [14]) [nM]	also measured
CC[C@H](C)[C@H](NC(=O)[C@H](C)NC(=O)[C@H](CCCCN)NC(=O)[C@H](CCCCN)NC(=O)CNC(=O)[C@H](CS)NC(=O)[C@@H](NC(=O)[C@H](CCC(=O)O)NC(=O)[C@@H](NC(=O)[C@H](CC(C)C)NC(=O)[C@@H](NC(=O)[C@H](CCC(N)=O)NC(=O)[C@H](CC(=O)O)NC(=O)[C@H](Cc1ccc(O)cc1)NC(=O)[C@H](CCC(N)=O)NC(=O)[C@H](CCCNC(=N)N)NC(=O)[C@@H](NC(=O)[C@H](CCCCN)NC(=O)[C@@H](NC(=O)[C@@H](N)Cc1ccccc1)[C@@H](C)CC)C(C)C)[C@@H](C)CC)[C@@H](C)CC)[C@@H](C)CC)C(=O)NCC(=O)N[C@H](C(=O)N[C@H](C(N)=O)C(C)C)[C@@H](C)O [protease(53-75)]	41	19												IC50 (HLA-DR DRB1*10:01): 62 nM; IC50 (HLA-DR DRB1*04:05): 282 nM; IC50 (HLA-DR DRB1*08:02): 325 nM; IC50 (HLA-DR DRB1*04:01): 675 nM; IC50 (HLA-DR DRB1*03:01): 347 nM; IC50 (HLA-DR DRB1*01:01): 29 nM; IC50 (HLA-DR DRB1*11:01): 1360 nM; IC50 (HLA-DR DRB1*09:01): 234 nM; IC50 (HLA-DR DRB1*07:01): 1770 nM; IC50 (HLA-DR DRB1*13:02): 4080 nM; IC50 (HLA-DR DRB1*12:01): 77 nM
CC[C@H](C)[C@H](NC(=O)[C@@H](NC(=O)[C@H](CCCCN)NC(=O)[C@@H](NC(=O)[C@@H]1CCCN1C(=O)[C@H](Cc1c[nH]c2ccccc12)NC(=O)[C@H](CCCNC(=N)N)NC(=O)CNC(=O)[C@H](C)NC(=O)[C@H](CC(C)C)NC(=O)[C@H](CCCCN)NC(=O)[C@H](CC(C)C)NC(=O)[C@@H](NC(=O)[C@H](Cc1ccccc1)NC(=O)[C@H](Cc1ccc(O)cc1)NC(=O)[C@H](C)NC(=O)[C@@H](NC(=O)[C@@H](N)CCC(=O)O)[C@@H](C)O)[C@@H](C)CC)C(C)C)C(C)C)C(N)=O [integrase(96-113)]	697	857	13	629	365	1770	224	4.3	27	390	1380	4410	1510	
CC[C@H](C)[C@H](NC(=O)[C@H](CCCCN)NC(=O)[C@@H](NC(=O)[C@@H](NC(=O)[C@@H](N)CCC(N)=O)[C@@H](C)CC)[C@@H](C)O)C(=O)N[C@@H](CCC(N)=O)C(=O)N[C@@H](CC(N)=O)C(=O)N[C@@H](Cc1ccccc1)C(=O)N[C@@H](CCCNC(=N)N)C(=O)N[C@H](C(=O)N[C@@H](Cc1ccc(O)cc1)C(=O)N[C@@H](Cc1ccc(O)cc1)C(=O)N[C@@H](CCCNC(=N)N)C(=O)N[C@@H](CC(=O)O)C(=O)N[C@@H](CO)C(=O)N[C@@H](CCCNC(=N)N)C(=O)N[C@@H](CC(=O)O)C(=O)N1CCC[C@H]1C(=O)N[C@H](C(=O)N[C@@H](Cc1c[nH]c2ccccc12)C(N)=O)[C@@H](C)CC)C(C)C [integrase(216-235)]		39	45	179	8.8	203	11	0.7	288	542	63	1930	6.6	IC50 [1]: 311 nM
